Reference: patent US11071743B1, “Effective, non-toxic treatments for brain cancer” (priority 2015, dated 2021)

Experiments:
glioblastoma = conditions: in lab dishes; cited from earlier work
[1] = normal brains; cited from earlier work
[2] = test system: lipid-encapsulated viruses; conditions: in vitro; cited from earlier work
glioblastoma multiforme = assay: Example Two: treatment of a patient; format: in vivo, human; conditions: dose escalated to 22 mg/kg
Experimental: A person living in Argentina was diagnosed with glioblastoma multiforme in January of 2014 and was immediately treated with surgery, chemotherapy, and radiation.
Shortly thereafter, near the middle of October, the patient began receiving the following regimen, alfacalcidol not being available: valganciclovir, 450 mg twice a day melatonin, 12 mg twice a day
BHT, 700 mg in the morning plus 350 mg at night resveratrol, 175 mg twice a day lycopene, 15 mg once a day
Honokiol, 250 mg twice a day metformin, 500 mg once a day, and vitamin D3, 2800 IU at night.
About two weeks later, bio-absorbable curcumin (from the Life Extension Foundation, described above), 400 mg twice a day, was added to the regimen, and circa November 4th, alfacalcidol was added to the regimen (3 micrograms in the morning).
The supply of alfacalcidol ran out at about that time. At the same time, sugar and other carbohydrate intake was restricted. In February, the dexamethasone dose was cut to 1 and 2 mg in the morning and evening, respectively. […] Alfacalcidol was resumed in April, at a double dose (3 micrograms twice a day) to compensate in part for the previous lapse, at which time the dexamethasone dose was cut to 1 mg twice a day. The tumor continued to show no progression in May, and the alfacalcidol dose was reduced to 2 micrograms twice a day in June, when the metformin dose was raised to […] in the morning. […]

For `Oc1ccc(C=Cc2cc(O)cc(O)c2)cc1` [Resveratrol], the anti-glioblastoma effects (glioblastoma) is given as “powerful anti-glioblastoma effects” and the blood-brain barrier penetration [1] is given as “poorly if at all”.
In the case of `Cc1cc(C(C)(C)C)c(O)c(C(C)(C)C)c1` [BHT, butylated hydroxytoluene], the “killing of lipid-encapsulated viruses” value [2] is given as “kill lipid-encapsulated viruses”.
For `O=C(O)C(Cl)Cl` [DCA, dichloroacetate], the “side effect of DCA” value (glioblastoma multiforme) was “numbness was experienced”.
